Experimental data from US12378224B2 (Dong-A Socio Holdings Co., Ltd., priority 2016, dated 2025).

These molecules were tested against human MER (528-end) (Homo sapiens (Human), UniProt Q12866) (assay: HTRF Kinase Activity Biochemical Assay (KinEASE-TK)). Details: 10 uM ATP.
How it was run: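 Activity read-out is the HTRF ratio (665 nm over 620 nm emission, ×10,000; excitation 340 nm) after 1 h detection with 0.375 nM Eu3+-cryptate anti-TK antibody plus 0.062 uM SA-XL665. Preceding kinase step: human MER (528-end), biotinylated TK substrate, 1 h, room temperature.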

Chain of human MER (528-end) (Q12866 528-999 limits assumed): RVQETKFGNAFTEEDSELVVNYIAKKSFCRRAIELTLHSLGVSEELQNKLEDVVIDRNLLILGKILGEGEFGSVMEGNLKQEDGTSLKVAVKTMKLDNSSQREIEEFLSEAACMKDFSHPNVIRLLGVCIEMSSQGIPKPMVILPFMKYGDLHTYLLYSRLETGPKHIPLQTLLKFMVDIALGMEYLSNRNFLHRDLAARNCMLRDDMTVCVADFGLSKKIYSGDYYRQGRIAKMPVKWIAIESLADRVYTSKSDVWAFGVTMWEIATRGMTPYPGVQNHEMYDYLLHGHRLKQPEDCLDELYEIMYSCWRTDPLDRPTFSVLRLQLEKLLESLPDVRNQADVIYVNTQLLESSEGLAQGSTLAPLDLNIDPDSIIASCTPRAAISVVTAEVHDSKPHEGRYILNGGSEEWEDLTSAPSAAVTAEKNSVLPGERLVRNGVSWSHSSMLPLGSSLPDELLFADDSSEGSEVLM

Q: How did the IC50 turn out when `CN1CCC(NCc2ccc(-c3cccc(OC(=O)N4CC[C@@H](NC(=O)c5cc(-c6cnn(C)c6)cnc5N)C4)c3)cc2)CC1` [Example 318, 4′-(((1-methylpiperidin-4-yl)amino)methyl)-[1,1′-biphenyl]-3-yl (R)-3-(2-amino-5-(1-methyl-1H-pyrazol-4-yl)nicotinamido)pyrrolidine-1-carboxylate] was run?
A: Its IC50 is 100 to 1000 nM.

Q: Which IC50 does the source give for `Cn1cc(-c2cnc(N)c(C(=O)N[C@@H]3CCN(C(=O)Oc4cccc(-c5ccc(CN6CCCC(O)C6)cc5)c4)C3)c2)cn1` (stereo partly drawn) [Example 319, 4′-((3-hydroxypiperidin-1-yl)methyl)[1,1′-biphenyl]-3-yl (3R)-3-(2-amino-5-(1-methyl-1H-pyrazol-4-yl)nicotinamido)pyrrolidine-1-carboxylate] here?
A: The IC50 was 100 to 1000 nM.

Q: Which IC50 does the source give for `Cn1cc(-c2cnc(N)c(C(=O)N[C@@H]3CCN(C(=O)Oc4cccc(-c5ccc(CN6CCCC(CO)C6)cc5)c4)C3)c2)cn1` (stereo partly drawn) [Example 320, 4′-((3-(hydroxymethyl)piperidin-1-yl)methyl)-[1,1′-biphenyl]-3-yl (3R)-3-(2-amino-5-(1-methyl-1H-pyrazol-4-yl)nicotinamido)pyrrolidine-1-carboxylate] here?
A: Its IC50 is 100 to 1000 nM.

Q: `Cn1cc(-c2cnc(N)c(C(=O)N[C@@H]3CCN(C(=O)Oc4cccc(-c5ccc(CN6CCC(CO)CC6)cc5)c4)C3)c2)cn1` [Example 321, 4′-((4-(hydroxymethyl)piperidin-1-yl)methyl)-[1,1′-biphenyl]-3-yl (R)-3-(2-amino-5-(1-methyl-1H-pyrazol-4-yl)nicotinamido)pyrrolidine-1-carboxylate] was tested. Which IC50 did it give?
A: The IC50 was 100 to 1000 nM.

Q: `CN1CC[C@@H]2CN(Cc3ccc(-c4cccc(OC(=O)N5CC[C@@H](NC(=O)c6cc(-c7cnn(C)c7)cnc6N)C5)c4)cc3)C[C@@H]21` [Example 322, 4′-(((3aR,6aR)-1-methylhexahydropyrrolo[3,4-b]pyrrol-5(1H)-yl)methyl)-[1,1′-biphenyl]-3-yl (R)-3-(2-amino-5-(1-methyl-1H-pyrazol-4-yl)nicotinamido)pyrrolidine-1-carboxylate] was tested. Which IC50 did it give?
A: Its IC50 is 100 to 1000 nM.

Q: With `Cn1cc(-c2cnc(N)c(C(=O)N[C@@H]3CCN(C(=O)Oc4cccc(-c5ccc(CN6CCCNCC6)cc5)c4)C3)c2)cn1` [Example 323, 4′-((1,4-diazepan-1-yl)methyl)-[1,1′-biphenyl]-3-yl (R)-3-(2-amino-5-(1-methyl-1H-pyrazol-4-yl)nicotinamido)pyrrolidine-1-carboxylate] as the molecule, how does the IC50 read?
A: The IC50 was 100 to 1000 nM.

Q: Which IC50 does the source give for `Cn1cc(-c2cnc(N)c(C(=O)N[C@@H]3CCN(C(=O)Oc4cccc(-c5ccc(CN6CCC[C@@H]6CO)cc5)c4)C3)c2)cn1` [Example 324, 4′-(((R)-2-(hydroxymethyl)pyrrolidin-1-yl)methyl)-[1,1′-biphenyl]-3-yl (R)-3-(2-amino-5-(1-methyl-1H-pyrazol-4-yl)nicotinamido)pyrrolidine-1-carboxylate] here?
A: The IC50 was 100 to 1000 nM.

Q: With `Cn1cc(-c2cnc(N)c(C(=O)N[C@@H]3CCN(C(=O)Oc4cccc(-c5ccc(CN6CCC[C@H]6C(N)=O)cc5)c4)C3)c2)cn1` [Example 325, 4′-(((S)-2-carbamoylpyrrolidin-1-yl)methyl)-[1,1′-biphenyl]-3-yl (R)-3-(2-amino-5-(1-methyl-1H-pyrazol-4-yl)nicotinamido)pyrrolidine-1-carboxylate] as the molecule, how does the IC50 read?
A: The IC50 was greater than 1000 nM.

Q: How did the IC50 turn out when `C[C@H](CO)NCc1ccc(-c2cccc(OC(=O)N3CC[C@@H](NC(=O)c4cc(-c5cnn(C)c5)cnc4N)C3)c2)cc1` [Example 327, 4′-((((R)-1-hydroxypropan-2-yl)amino)methyl)-[1,1′-biphenyl]-3-yl (R)-3-(2-amino-5-(1-methyl-1H-pyrazol-4-yl)nicotinamido)pyrrolidine-1-carboxylate] was run?
A: The IC50 was 100 to 1000 nM.

Q: How did the IC50 turn out when `Cn1cc(-c2cnc(N)c(C(=O)N[C@@H]3CCN(C(=O)Oc4cccc(-c5ccc(CNCCCO)cc5)c4)C3)c2)cn1` [Example 328, 4′-(((3-hydroxypropyl)amino)methyl)-[1,1′-biphenyl]-3-yl (R)-3-(2-amino-5-(1-methyl-1H-pyrazol-4-yl)nicotinamido)pyrrolidine-1-carboxylate] was run?
A: The IC50 was 100 to 1000 nM.

Q: Which IC50 does the source give for `Cn1cc(-c2cnc(N)c(C(=O)N[C@@H]3CCN(C(=O)Oc4cccc(-c5ccc(CN6CCC(C(=O)O)C6)cc5)c4)C3)c2)cn1` (stereo partly drawn) [Example 329, 1-((3′-(((R)-3-(2-amino-5-(1-methyl-1H-pyrazol-4-yl)nicotinamido)pyrrolidine-1-carbonyl)oxy)-[1,1′-biphenyl]-4-yl)methyl)pyrrolidine-3-carboxylic acid] here?
A: The IC50 was greater than 1000 nM.

Q: How did the IC50 turn out when `Cn1cc(-c2cnc(N)c(C(=O)N[C@@H]3CCN(C(=O)Oc4cccc(-c5cccc(CN6CC[C@H](N)C6)c5)c4)C3)c2)cn1` [Example 337, 3′-(((S)-3-aminopyrrolidin-1-yl)methyl)-[1,1′-biphenyl]-3-yl (R)-3-(2-amino-5-(1-methyl-1H-pyrazol-4-yl)nicotinamido)pyrrolidine-1-carboxylate] was run?
A: The IC50 was greater than 1000 nM.

Q: Which IC50 does the source give for `Cn1cc(-c2cnc(N)c(C(=O)N[C@@H]3CCN(C(=O)c4ccc(Br)cc4)C3)c2)cn1` [Example 342, (R)-2-amino-N-(1-(4-bromobenzoyl)pyrrolidin-3-yl)-5-(1-methyl-1H-pyrazol-4-yl)nicotinamide] here?
A: Its IC50 is greater than 1000 nM.

Q: With `Cn1cc(-c2cnc(N)c(C(=O)N[C@@H]3CCN(C(=O)c4ccc(-c5ccccc5)cc4)C3)c2)cn1` [Example 343, (R)—N-(1-([1,1′-biphenyl]-4-carbonyl)pyrrolidin-3-yl)-2-amino-5-(1-methyl-1H-pyrazol-4-yl)nicotinamide] as the molecule, how does the IC50 read?
A: The IC50 was 10 to 100 nM.

Q: `Cn1cc(-c2cnc(N)c(C(=O)N[C@H]3CCN(C(=O)c4cccc(-c5ccccc5)c4)C3)c2)cn1` [Example 345, (S)—N-(1-([1,1′-biphenyl]-3-carbonyl)pyrrolidin-3-yl)-2-amino-5-(1-methyl-1H-pyrazol-4-yl)nicotinamide] was tested. Which IC50 did it give?
A: The IC50 was greater than 1000 nM.

Q: How did the IC50 turn out when `Cn1cc(-c2cnc(N)c(C(=O)N[C@@H]3CCN(C(=O)c4ccc(-c5ccccc5CO)cc4)C3)c2)cn1` [Example 349, (R)-2-amino-N-(1-(2′-(hydroxymethyl)-[1,1′-biphenyl]-4-carbonyl)pyrrolidin-3-yl)-5-(1-methyl-1H-pyrazol-4-yl)nicotinamide] was run?
A: The IC50 was 100 to 1000 nM.

Q: With `CC(C)c1ccccc1-c1ccc(C(=O)N2CC[C@@H](NC(=O)c3cc(-c4cnn(C)c4)cnc3N)C2)cc1` [Example 350, (R)-2-amino-N-(1-(2′-isopropyl-[1,1′-biphenyl]-4-carbonyl)pyrrolidin-3-yl)-5-(1-methyl-1H-pyrazol-4-yl)nicotinamide] as the molecule, how does the IC50 read?
A: Its IC50 is 100 to 1000 nM.

Q: `Cn1cc(-c2cnc(N)c(C(=O)N[C@@H]3CCN(C(=O)c4ccc(-c5ccccc5Oc5ccccc5)cc4)C3)c2)cn1` [Example 351, (R)-2-amino-5-(1-methyl-1H-pyrazol-4-yl)-N-(1-(2^1-phenoxy-[1,1′-biphenyl]-4-carbonyl)pyrrolidin-3-yl)nicotinamide] was tested. Which IC50 did it give?
A: Its IC50 is greater than 1000 nM.

Q: Which IC50 does the source give for `Cn1cc(-c2cnc(N)c(C(=O)N[C@@H]3CCN(C(=O)c4ccc(-c5ccccc5-c5ccccc5)cc4)C3)c2)cn1` [Example 352, (R)—N-(1-([1,1′:2′,1″-terphenyl]-4-carbonyl)pyrrolidin-3-yl)-2-amino-5-(1-methyl-1H-pyrazol-4-yl)nicotinamide] here?
A: Its IC50 is greater than 1000 nM.

Q: With `CCc1ccccc1-c1ccc(C(=O)N2CC[C@@H](NC(=O)c3cc(-c4cnn(C)c4)cnc3N)C2)cc1` [Example 353, (R)-2-amino-N-(1-(2′-ethyl-[1,1′-biphenyl]-4-carbonyl)pyrrolidin-3-yl)-5-(1-methyl-1H-pyrazol-4-yl)nicotinamide] as the molecule, how does the IC50 read?
A: Its IC50 is 100 to 1000 nM.
